# Source: patent publication US11786519B2, “Apoptosis-inducing agents for the treatment of cancer and immune and autoimmune diseases” (AbbVie Inc., priority 2011, dated 2023)
# Assays:
# [1] = molecular target: mouse FL5.12 cells transfected with Bcl-xL (Homo sapiens, UniProt Q07817); experiment: FL5.12 cellular assay (cell viability, CellTiter-Glo); format: cell-based; settings: IL-3-depleted, 3% FBS assay media, 24 hours; read-out: FL5.12 Bcl-xL, −IL3, EC50
# Text: Individual determinations were the result of duplicate values.
# Bcl-xL = Bcl-xL (Homo sapiens, UniProt Q07817); experiment: TR-FRET binding assay, competition with F-Bak for Bcl-xL; settings: competition with F-Bak probe, GST-Bcl-xL
# Sequence of Bcl-xL (Q07817 whole entry): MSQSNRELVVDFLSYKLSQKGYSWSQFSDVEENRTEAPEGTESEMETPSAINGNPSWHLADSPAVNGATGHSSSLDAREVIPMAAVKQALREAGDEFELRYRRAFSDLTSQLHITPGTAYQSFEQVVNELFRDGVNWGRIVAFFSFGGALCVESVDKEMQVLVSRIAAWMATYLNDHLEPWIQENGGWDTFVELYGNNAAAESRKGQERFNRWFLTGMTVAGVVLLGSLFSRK
# Description: Determination of the utility of compounds having Formula (I) as binders to and inhibitors of anti-apoptotic Bcl-xL proteins was performed using the Time Resolved-Fluorescence Resonance Energy Transfer (TR-FRET) Assay. Tb-anti-GST antibody was purchased from Invitrogen (Catalog No. PV4216).
# The measurement of competition of compounds of the invention with F-Bak for a Bcl-2 family protein (Bcl-xL) binding site using a Time Resolved Fluorescence Resonance Energy Transfer (TR-FRET) binding assay:
# Test compounds were serially diluted in DMSO starting at 50 µM (2× starting concentration; 10% DMSO) and 10 μL transferred into a 384-well plate.
# The samples are then mixed on a shaker for 1 minute then incubated for an additional 2 hours at room temperature. For each assay plate, a probe/antibody and protein/antibody/probe mixture were included as a negative and a positive control, respectively. Fluorescence was measured on the ENVISION plate reader (Perkin Elmer) using a 340/35 nm excitation filter and 520/525 (F-Bak) and 495/510 nm ([…]) emission filters. Dissociation constants (Ki) were determined using Wang's equation (Wang, Z. X. An exact mathematical expression for describing competitive binding of two different ligands to a protein molecule. FEBS Lett. 1995 360:111-114). The TR-FRET assay can be performed in the presence of varying concentrations of human serum (HS) or fetal bovine serum (FBS).
# Sequence of mouse FL5.12 cells transfected with Bcl-xL (Q07817 whole entry, change not shown): as the sequence (Q07817 whole entry) above
Compound,EC50 [1] [nM],Ki (Bcl-xL) [nM]
"Cc1nn(CC23CC4CC(CC(C4)C2)C3)c(C)c1-c1ccc(N2CCc3cccc(C(=O)Nc4nc5ccccc5s4)c3C2)nc1C(=O)O [Example 2, 6-[8-(1,3-benzothiazol-2-ylcarbamoyl)-3,4-dihydroisoquinolin-2(1H)-yl]-3-[3,5-dimethyl-1-(tricyclo[3.3.1.1^3,7]dec-1-ylmethyl)-1H-pyrazol-4-yl]pyridine-2-carboxylic acid]",< 1,< 0.1
"CC12CC3CC(C)(C1)CC(Cn1cc(-c4ccc(N5CCc6cccc(C(=O)Nc7nc8ccccc8s7)c6C5)nc4C(=O)O)cn1)(C3)C2 [Example 5, 6-[8-(1,3-benzothiazol-2-ylcarbamoyl)-3,4-dihydroisoquinolin-2(1H)-yl]-3-(1-{[3,5-dimethyltricyclo[3.3.1.1^3,7]dec-1-yl]methyl}-1H-pyrazol-4-yl)pyridine-2-carboxylic acid]",2,< 0.1
"CC12CC3(C)CC(C)(C1)CC(Cn1cc(-c4ccc(N5CCc6cccc(C(=O)Nc7nc8ccccc8s7)c6C5)nc4C(=O)O)cn1)(C2)C3 [Example 9, 6-[8-(1,3-benzothiazol-2-ylcarbamoyl)-3,4-dihydroisoquinolin-2(1H)-yl]-3-{1-[(3,5,7-trimethyltricyclo[3.3.1.1^3,7]dec-1-yl)methyl]-1H-pyrazol-4-yl}pyridine-2-carboxylic acid]",3,0.2
"Cc1c(-c2ccc(N3Cc4c(C(=O)Nc5nc6ccccc6s5)cccc4C(C)(C)C3)nc2C(=O)O)cnn1CC12CC3CC(CC(C3)C1)C2 [Example 14, 6-[8-(1,3-benzothiazol-2-ylcarbamoyl)-4,4-dimethyl-3,4-dihydroisoquinolin-2(1H)-yl]-3-[5-methyl-1-(tricyclo[3.3.1.1^3,7]dec-1-ylmethyl)-1H-pyrazol-4-yl]pyridine-2-carboxylic acid]",< 1,0.2
"Cc1c(-c2ccc(N3CCc4cccc(C(=O)Nc5nc6ccccc6s5)c4C3)nc2C(=O)NS(C)(=O)=O)cnn1CC12CC3CC(CC(C3)C1)C2 [Example 17, N-(1,3-benzothiazol-2-yl)-2-{6-[(methylsulfonyl)carbamoyl]-5-[5-methyl-1-(tricyclo[3.3.1.1^3,7]dec-1-ylmethyl)-1H-pyrazol-4-yl]pyridin-2-yl}-1,2,3,4-tetrahydroisoquinoline-8-carboxamide]",1,< 0.1
"Cc1c(-c2ccc(N3CCc4cccc(C(=O)Nc5nc6ccccc6s5)c4C3)nc2C(=O)NS(=O)(=O)C2CC2)cnn1CC12CC3CC(CC(C3)C1)C2 [Example 18, N-(1,3-benzothiazol-2-yl)-2-{6-[(cyclopropylsulfonyl)carbamoyl]-5-[5-methyl-1-(tricyclo[3.3.1.1^3,7]dec-1-ylmethyl)-1H-pyrazol-4-yl]pyridin-2-yl}-1,2,3,4-tetrahydroisoquinoline-8-carboxamide]",1,< 0.1
"Cc1c(-c2ccc(N3CCc4cccc(C(=O)Nc5nc6ccccc6s5)c4C3)nc2-c2nn[nH]n2)cnn1CC12CC3CC(CC(C3)C1)C2 [Example 19, N-(1,3-benzothiazol-2-yl)-2-{5-[5-methyl-1-(tricyclo[3.3.1.1^3,7]dec-1-ylmethyl)-1H-pyrazol-4-yl]-6-(2H-tetrazol-5-yl)pyridin-2-yl}-1,2,3,4-tetrahydroisoquinoline-8-carboxamide]",3,0.1
"N#Cc1c(-c2ccc(N3CCc4cccc(C(=O)Nc5nc6ccccc6s5)c4C3)nc2C(=O)O)cccc1S(=O)(=O)C12CC3CC(CC(C3)C1)C2 [Example 60, 6-[8-(1,3-benzothiazol-2-ylcarbamoyl)-3,4-dihydroisoquinolin-2(1H)-yl]-3-[2-cyano-3-(tricyclo[3.3.1.1^3,7]dec-1-ylsulfonyl)phenyl]pyridine-2-carboxylic acid]",,< 0.1
"Cc1c(-c2ccc(N3CCc4cccc(C(=O)Nc5nc6ccccc6s5)c4C3)nc2C(=O)O)ccnc1N(C)C1CCCCCCC1 [Example 61, 6-[8-(1,3-benzothiazol-2-ylcarbamoyl)-3,4-dihydroisoquinolin-2(1H)-yl]-2′-[cyclooctyl(methyl)amino]-3′-methyl-3,4′-bipyridine-2-carboxylic acid]",,< 0.1
"Cc1c(-c2ccc(N3CCc4cccc(C(=O)Nc5nc6ccccc6s5)c4C3)nc2C(=O)O)cnn1CC1C2CC3CC(C2)CC1C3 (stereo not drawn) [Example 62, 6-[8-(1,3-benzothiazol-2-ylcarbamoyl)-3,4-dihydroisoquinolin-2(1H)-yl]-3-[5-methyl-1-(tricyclo[3.3.1.1^3,7]dec-2-ylmethyl)-1H-pyrazol-4-yl]pyridine-2-carboxylic acid]",,< 0.1
Cc1c(C(=O)N(C)C2C3CC4CC(C3)CC2C4)cccc1-c1ccc(N2CCc3cccc(C(=O)Nc4nc5ccccc5s4)c3C2)nc1C(=O)O (stereo not drawn) [Example 64],,< 0.1
"Cc1c(-c2ccc(N3CCc4cccc(C(=O)Nc5nc6ccccc6s5)c4C3)nc2C(=O)O)cccc1N(C)C(=O)C12CC3CC(CC(C3)O1)C2 [Example 68, 6-[8-(1,3-benzothiazol-2-ylcarbamoyl)-3,4-dihydroisoquinolin-2(1H)-yl]-3-{2-methyl-3-[methyl(2-oxatricyclo[3.3.1.1^3,7]dec-1-ylcarbonyl)amino]phenyl}pyridine-2-carboxylic acid]",,< 0.1
"Cc1c(-c2ccc(N3CCc4cccc(C(=O)Nc5nc6ccccc6s5)c4C3)nc2C(=O)O)cccc1S(=O)(=O)N(C)C1C2CC3CC(C2)CC1C3 (stereo not drawn) [Example 69, 6-[8-(1,3-benzothiazol-2-ylcarbamoyl)-3,4-dihydroisoquinolin-2(1H)-yl]-3-(2-methyl-3-{methyl[tricyclo[3.3.1.1^3,7]dec-2-yl]sulfamoyl}phenyl)pyridine-2-carboxylic acid]",,0.6
"Cc1c(-c2ccc(N3CCc4cccc(C(=O)Nc5nc6ccccc6s5)c4C3)nc2C(=O)O)ccnc1S(=O)(=O)C12CC3CC(CC(C3)C1)C2 [Example 70, 6-[8-(1,3-benzothiazol-2-ylcarbamoyl)-3,4-dihydroisoquinolin-2(1H)-yl]-3′-methyl-2′-(tricyclo[3.3.1.1^3,7]dec-1-ylsulfonyl)-3,4′-bipyridine-2-carboxylic acid]",,< 0.1
"Cc1c(-c2ccc(N3CCc4cccc(C(=O)Nc5nc6ccccc6s5)c4C3)nc2C(=O)O)cc(C#N)n1CC12CC3CC(CC(C)(C3)O1)C2 [Example 72, 6-[8-(1,3-benzothiazol-2-ylcarbamoyl)-3,4-dihydroisoquinolin-2(1H)-yl]-3-{5-cyano-2-methyl-1-[(3-methyl-2-oxatricyclo[3.3.1.1^3,7]dec-1-yl)methyl]-1H-pyrrol-3-yl}pyridine-2-carboxylic acid]",,< 0.1
"Cc1c(-c2ccc(N3CCc4cccc(C(=O)Nc5cn6ccncc6n5)c4C3)nc2C(=O)O)cnn1CC12CC3CC(CC(C3)C1)C2 [Example 73, 6-[8-(imidazo[1,2-a]pyrazin-2-ylcarbamoyl)-3,4-dihydroisoquinolin-2(1H)-yl]-3-[5-methyl-1-(tricyclo[3.3.1.1^3,7]dec-1-ylmethyl)-1H-pyrazol-4-yl]pyridine-2-carboxylic acid]",,< 0.1
"Cc1c(-c2ccc(N3CCc4cccc(C(=O)Nc5nc6ccccc6s5)c4C3)nc2C(=O)O)cnn1CC12CC3CC(C1)CC(S(C)(=O)=O)(C3)C2 [Example 81, 6-[8-(1,3-benzothiazol-2-ylcarbamoyl)-3,4-dihydroisoquinolin-2(1H)-yl]-3-(5-methyl-1-{[3-(methylsulfonyl)tricyclo[3.3.1.1^3,7]dec-1-yl]methyl}-1H-pyrazol-4-yl)pyridine-2-carboxylic acid]",,< 0.1
"CNCCOC12CC3(C)CC(C)(CC(Cn4ncc(-c5ccc(N6CCc7cccc(C(=O)Nc8nc9ccccc9s8)c7C6)nc5C(=O)O)c4C)(C3)C1)C2 [Example 82, 6-[8-(1,3-benzothiazol-2-ylcarbamoyl)-3,4-dihydroisoquinolin-2(1H)-yl]-3-[1-({3,5-dimethyl-7-[2-(methylamino)ethoxy]tricyclo[3.3.1.1^3,7]dec-1-yl}methyl)-5-methyl-1H-pyrazol-4-yl]pyridine-2-carboxylic acid]",,< 0.1
"CNCCOCCOCCOC12CC3CC(CC(Cn4ncc(-c5ccc(N6CCc7cccc(C(=O)Nc8nc9ccccc9s8)c7C6)nc5C(=O)O)c4C)(C3)C1)C2 [Example 83, 6-[8-(1,3-benzothiazol-2-ylcarbamoyl)-3,4-dihydroisoquinolin-2(1H)-yl]-3-(5-methyl-1-{[3-(2-{2-[2-(methylamino)ethoxy]ethoxy}ethoxy)tricyclo[3.3.1.1^3,7]dec-1-yl]methyl}-1H-pyrazol-4-yl)pyridine-2-carboxylic acid]",,< 0.1
"O=C(Nc1nc2ccccc2s1)c1cccc2c1CN(c1ccc(-c3ccc(=O)n(CC45CC6CC(CC(C6)C4)C5)c3)c(C(=O)O)n1)CC2 [Example 85, 6-[8-(1,3-benzothiazol-2-ylcarbamoyl)-3,4-dihydroisoquinolin-2(1H)-yl]-6′-oxo-1′-(tricyclo[3.3.1.1^3,7]dec-1-ylmethyl)-1′,6′-dihydro-3,3′-bipyridine-2-carboxylic acid]",,< 0.1
